Assay results reported in US20160115447A1, “COMPOSITIONS AND METHODS FOR IMPROVING INDUCED NEURON GENERATION” (PRESIDENT AND FELLOWS OF HARVARD COLLEGE, priority 2013, published 2016).
Read-outs that look alike come from different tables or passages of the source.

Tests used:
mouse adult fibroblasts = experiment: transcription factor-mediated conversion of mouse adult fibroblasts into Hb9::GFP+ spinal motor neurons (iMN conversion screen); type: cell-based; details: days 1-5, 6-10 or 11-15 of reprogramming, FIG. 4
Source text: FIGS. 1A and 1B illustrate the screens performed to identify small molecule enhancers of induced motor neuron (iMN) conversion. FIG. 1A is a schematic illustration depicting the primary screen for small molecules enhancers of iMN conversion via viral transduction with 7 transcription factors performed on fibroblasts harvested from 2 month old Hb9::GFP mice. FIG. 1B is a graphical illustration depicting the results of a secondary screen performed on the top hits identified by the primary screen depicted in FIG. 1A, pointing to two lead compounds as effective enhancers of iMN conversion.
To this end, a functional reprogramming screen was used to identify small molecules that increase the rate of transcription factor-mediated conversion of mouse adult fibroblasts into Hb9::GFP+ spinal motor neurons (FIGS. 1A and 1B). An inhibitor of Activin-like kinases 4/5/7 (FIG. 2A) and a Polo-like kinase I (PLK1) inhibitor (FIG. 2B) each increased induced motor neuron formation by 5-10-fold (FIG. 3). In combination, the chemicals increased the rate of induced motor neuron formation by 50-fold (FIG. 3).

[1] = system: Hb9::GFP+ intermediates exhibiting a non-neuronal morphology; details: FIG. 6
human fibroblasts = details: FIG. 7
[2] = system: fibroblasts transduced with Ascl1, Myt1l, and Brn2
Source text: To determine if Activin inhibition increases conversion into other neuronal types, fibroblasts were transduced with Ascl1, Myt1l, and Brn2, transcription factors that induce the formation of non-motor neurons, and cultured the cells with or without the Activin inhibitor.

| Structure (SMILES) | effect on iMN conversion by time of administration (pulse treatments) (mouse adult fibroblasts) | effect on iMN conversion by time of administration (pulse treatments) (mouse adult fibroblasts; listed as PLK1 inhibitor) | survival of Hb9::GFP+ intermediates [1] | survival of FACS-sorted iMNs (FACS-sorted iMNs; SOD1G93A motor neurons, FIG. 5B) | survival of FACS-sorted iMNs (FACS-sorted iMNs; wild-type (WT) motor neurons, FIG. 5A) | generation of patient specific human iMNs (human fibroblasts) | effect on iMN conversion by time of administration (pulse treatments) (mouse adult fibroblasts; listed as Activin inhibitor) | induced neuron (iN) conversion ([2]; FIG. 9) | increase of the number of neurons generated ([2]; with versus without the Activin inhibitor) [fold] |
| --- | --- | --- | --- | --- | --- | --- | --- | --- | --- |
| CC[C@@H]1C(=O)N(C)c2cnc(Nc3ccc(C(=O)NC4CCN(C)CC4)cc3OC)nc2N1C1CCCC1 [BI 2536, 4-[[(7R)-8-cyclopentyl-7-ethyl-5-methyl-6-oxo-7H-pteridin-2-yl]amino]-3-methoxy-N-(1-methylpiperidin-4-yl)benzamide] | improved conversion only during days 6-10 | only active during days 6-10 | – | – | – | – | – | – | – |
| Cc1cccc(-c2[nH]ncc2-c2ccc3ncccc3n2)n1 [RepSox] | improved iMN conversion regardless of the time it is added to the culture medium | – | promotes survival | promotes survival | promotes survival | promotes generation | effective when administered from days 1-5, 6-10, or 11-15 | enhances induced neuron (iN) conversion | 10 |
